# According to patent publication US20190218588A1, “NOVEL CELL CULTURE METHOD, CELL CULTURE SYSTEM AND USES THEREOF” (priority 2016, published 2019):
# Tested on: human hepatocytes cultured in human plasma medium
# Format: cell-based
smiles,measurement,value
COc1cc2c(c3oc(=O)c4c(c13)CCC4=O)[C@@H]1C=CO[C@@H]1O2 [Aflatoxin B1],UC50 value after day 10 treatment relative to 2-day treatment (fold lower),19 ×
same,cytotoxicity to human hepatocytes,cytotoxic
